{
  "source": "patent US12371691B2",
  "about": "“Nano complex for targeted repairing of neurovascular lesion, and preparation and use thereof” (SHANGHAI JIAOTONG UNIVERSITY SCHOOL OF MEDICINE, priority 2019, dated 2025)",
  "key": {"[1]": {"test_system": "Mouse-derived cerebrovascular endothelial cells bEnd3 cells", "assay": "High-content quantitative analysis of cellular uptake of red fluorescence-labeled nano complexes", "type": "cell-based", "settings": "DiI-labeled nano complexes modified with the targeted peptide, 5 μg/mL by lipid mass, 6 h; FIG. 3", "protocol": "High-content quantitative analysis was performed to determine cellular uptake of each of the above-mentioned nano complexes. Mouse-derived cerebrovascular endothelial cells bEnd3 cells were seeded in a 96-well plate at a density of 5000/well and cultured for 24 h. The original culture solution was aspirated and discarded, and 100 μL of the above-mentioned 8 red fluorescence-labeled nanostructure solutions (5 μg/mL, calculated by lipid mass) were added, respectively; the mixture was incubated in a cell incubator for 6 h, then fixed with 3.7% formaldehyde at 37° C. for 10 min, nuclear stained with Hoechest for 10 min, washed three times with PBS, and then photographed and subjected to quantitative analysis with a high-content Target Activation procedure. […]\nMoreover, a red fluorescence-labeled targeted nano complex was prepared as described in the method of Example 2. Cellular uptake of a targeted peptide-modified nano complex was subjected to high-content quantitative analysis. The cerebrovascular endothelial cells were treated with targeted peptide-modified nano complexes containing targeted peptides of different ratios (1500:1, 1000:1, 500:1, 250:1, 100:1, 30:1, 10:1, and 5:1, the molar ratio of the lipid to the targeted peptide); the mixture was incubated in a cell incubator for 6 h, then fixed, nuclear stained, and subjected to high-content quantitative analysis."}, "[2]": {"test_system": "cerebral vessels of AD model mice", "assay": "Comparison of vascular binding capacity, two-photon imaging of brain after tail vein administration", "type": "in vivo, mouse", "settings": "DiI-labeled nano complexes modified with the targeted peptide, 3 hours, FIG. 4", "protocol": "The AD model animal mice were administered via tail veins with the above-mentioned red fluorescence-labeled nano complexes modified with targeted peptides (containing 8 bridge structure peptides), and were sacrificed 3 hours later. The mice were perfused with normal saline until the blood was not red, and the brain thereof was taken and photographed by a two-photon microscope. The nano complexes bound on cerebral vessels were imaged, and Image J image analysis software was used to analyze the fluorescence intensity of the red fluorescence-labeled nano complexes bound on the cerebral vessels."}},
  "note": "Entries after “also recorded” stand apart in the source; their conditions may differ. No end group written: not given here.",
  "data": [
    {"substance": "AC-Phe-Ala-Glu-Lys-Phe-Lys-Glu-Ala-Val-Lys-Asp-Tyr-Phe-Ala-Lys-Phe-Trp-Asp-Ile-Ala-Glu-Leu-Lys-Val-Leu-Met-Glu-Lys-Glu-Leu (Ac-FAEKFKEAVKDYFAKFWDIAELKVLMEKEL) [R2, targeted peptide with bridge Ile-Ala; tested as modifier of DiI-labeled nano complex]", "values": [
      {"measurement": "uptake of nano complex by cerebrovascular endothelial cells (bridge structure peptide screen)", "setting": "[1]", "result": "good effect on uptake"}
    ]},
    {"substance": "AC-Phe-Ala-Glu-Lys-Phe-Lys-Glu-Ala-Val-Lys-Asp-Tyr-Phe-Ala-Lys-Phe-Trp-Asp-Gly-Ser-Gly-Glu-Leu-Lys-Val-Leu-Met-Glu-Lys-Glu-Leu (Ac-FAEKFKEAVKDYFAKFWDGSGELKVLMEKEL) [R4, targeted peptide with bridge Gly-Ser-Gly; tested as modifier of DiI-labeled nano complex]", "values": [
      {"measurement": "uptake of nano complex by cerebrovascular endothelial cells (bridge structure peptide screen)", "setting": "[1]", "result": "good effect on uptake; also recorded: better uptake; also recorded: best uptake"},
      {"measurement": "fluorescence intensity of nano complexes bound on cerebral vessels (bridge structure peptide screen)", "setting": "[2]", "result": "dominant targeted peptides; also recorded: optimal targeted peptide"}
    ]},
    {"substance": "AC-Phe-Ala-Glu-Lys-Phe-Lys-Glu-Ala-Val-Lys-Asp-Tyr-Phe-Ala-Lys-Phe-Trp-Asp-Ile-Gly-Glu-Leu-Lys-Val-Leu-Met-Glu-Lys-Glu-Leu (Ac-FAEKFKEAVKDYFAKFWDIGELKVLMEKEL) [R3, targeted peptide with bridge Ile-Gly; tested as modifier of DiI-labeled nano complex]", "values": [
      {"measurement": "uptake of nano complex by cerebrovascular endothelial cells (bridge structure peptide screen)", "setting": "[1]", "result": "good effect on uptake"}
    ]},
    {"substance": "AC-Phe-Ala-Glu-Lys-Phe-Lys-Glu-Ala-Val-Lys-Asp-Tyr-Phe-Ala-Lys-Phe-Trp-Asp-Gly-Gly-Glu-Leu-Lys-Val-Leu-Met-Glu-Lys-Glu-Leu (Ac-FAEKFKEAVKDYFAKFWDGGELKVLMEKEL) [R1, targeted peptide with bridge Gly-Gly; tested as modifier of DiI-labeled nano complex]", "values": [
      {"measurement": "uptake of nano complex by cerebrovascular endothelial cells (bridge structure peptide screen)", "setting": "[1]", "result": "good effect on uptake; also recorded: better uptake"},
      {"measurement": "fluorescence intensity of nano complexes bound on cerebral vessels (bridge structure peptide screen)", "setting": "[2]", "result": "dominant targeted peptides"}
    ]},
    {"substance": "AC-Phe-Ala-Glu-Lys-Phe-Lys-Glu-Ala-Val-Lys-Asp-Tyr-Phe-Ala-Lys-Phe-Trp-Asp-Gly-Ser-Ser-Ser-Gly-Gly-Glu-Leu-Lys-Val-Leu-Met-Glu-Lys-Glu-Leu (Ac-FAEKFKEAVKDYFAKFWDGSSSGGELKVLMEKEL) [R8, targeted peptide with bridge Gly-Ser-Ser-Ser-Gly-Gly; tested as modifier of DiI-labeled nano complex]", "values": [
      {"measurement": "uptake of nano complex by cerebrovascular endothelial cells (bridge structure peptide screen)", "setting": "[1]", "result": "good effect on uptake"}
    ]},
    {"substance": "AC-Phe-Ala-Glu-Lys-Phe-Lys-Glu-Ala-Val-Lys-Asp-Tyr-Phe-Ala-Lys-Phe-Trp-Asp-Ile-Ala-Ile-Glu-Leu-Lys-Val-Leu-Met-Glu-Lys-Glu-Leu (Ac-FAEKFKEAVKDYFAKFWDIAIELKVLMEKEL) [R5, targeted peptide with bridge Ile-Ala-Ile; tested as modifier of DiI-labeled nano complex]", "values": [
      {"measurement": "uptake of nano complex by cerebrovascular endothelial cells (bridge structure peptide screen)", "setting": "[1]", "result": "good effect on uptake; also recorded: better uptake"},
      {"measurement": "fluorescence intensity of nano complexes bound on cerebral vessels (bridge structure peptide screen)", "setting": "[2]", "result": "dominant targeted peptides"}
    ]},
    {"substance": "AC-Phe-Ala-Glu-Lys-Phe-Lys-Glu-Ala-Val-Lys-Asp-Tyr-Phe-Ala-Lys-Phe-Trp-Asp-Gly-Gly-Ser-Gly-Gly-Glu-Leu-Lys-Val-Leu-Met-Glu-Lys-Glu-Leu (Ac-FAEKFKEAVKDYFAKFWDGGSGGELKVLMEKEL) [R7, targeted peptide with bridge Gly-Gly-Ser-Gly-Gly; tested as modifier of DiI-labeled nano complex]", "values": [
      {"measurement": "uptake of nano complex by cerebrovascular endothelial cells (bridge structure peptide screen)", "setting": "[1]", "result": "good effect on uptake"}
    ]},
    {"substance": "AC-Phe-Ala-Glu-Lys-Phe-Lys-Glu-Ala-Val-Lys-Asp-Tyr-Phe-Ala-Lys-Phe-Trp-Asp-Gly-Ala-Gly-Ala-Glu-Leu-Lys-Val-Leu-Met-Glu-Lys-Glu-Leu (Ac-FAEKFKEAVKDYFAKFWDGAGAELKVLMEKEL) [R6, targeted peptide with bridge Gly-Ala-Gly-Ala; tested as modifier of DiI-labeled nano complex]", "values": [
      {"measurement": "uptake of nano complex by cerebrovascular endothelial cells (bridge structure peptide screen)", "setting": "[1]", "result": "good effect on uptake; also recorded: better uptake"},
      {"measurement": "fluorescence intensity of nano complexes bound on cerebral vessels (bridge structure peptide screen)", "setting": "[2]", "result": "dominant targeted peptides"}
    ]}
  ]
}
